By IC50 is commonly meant the concentration needed to halve the response being measured. Usually viability stands for the share of living cells, or the viability signal relative to a control.

The source of these data is PMC11251039, “Harnessing cholesterol uptake of malaria parasites for therapeutic applications” (EMBO Molecular Medicine, 2024).

One assay has as its system P. berghei liver stages. As to the kind of experiment: Plasmodium berghei liver stage growth inhibition assay (luminescence, in Huh7 cells). The settings on record: for P. berghei liver stage growth, dose-response data points (Figure 3A): replicate data points; for P. berghei liver stage growth, dose-response data points (Figure 3A) / Figure 3E dose-response value (replicates): listed as BC5B.

Assay [1] relates to human embryonic kidney cells (HEK293). As to the kind of experiment: Human embryonic kidney cell viability assay (MTT). It is filed as cell-based. The settings on record: Homo sapiens; 96 h, HEK293; read-out: IC50, human embryonic kidney cell inhibition (viability). Put shortly: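 HEK293 cells, 5,000 per well, exposed to serially diluted compound for 96 hours; 10 µg/mL cycloheximide as background control. Viability by MTT (0.45 mg/mL, 2 h), SDS solubilisation, absorbance at 570 nm.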

For assay [2], the system named is P. falciparum stage V gametocytes. As to the kind of experiment: P. falciparum gametocyte viability assay (MitoTracker, flow cytometry), stage V. The settings on record: 48 h. It is filed as cell-based, Plasmodium falciparum. Here is the method: Gametocyte assays commenced seven days (stage III–IV) or ten days (stage V) post-invasion. […]
Plasmodium falciparum Gametocyte Viability Assays:
Asexual P. falciparum parasites were induced to form gametocytes as described (21).
Synchronized trophozoite-stage parasites at 2% parasitaemia were incubated overnight and […]
haematocrit maintained at 4%. On the subsequent day (designated as day 0) of gametocytogenesis, the culture containing early ring-stage parasites was first purified by sorbitol synchronisation to remove asynchronous trophozoites, and passed through a magnetic field in a sterile MACS® column in a SuperMACSTM II magnet to remove remaining late-stage parasites or later-stage gametocytes (negative selection). The culture medium was supplemented with 50 mM N-acetyl-D-glucosamine to inhibit asexual parasite proliferation, and changed daily. Sorbitol treatment was performed on Day 1, 5, and 6 to further remove asexual parasites. Gametocytes were magnetically enriched (positive selection) in a sterile column with a SuperMACSTM II magnet and eluted in culture media with 50 mM N-acetyl-D-glucosamine. These gametocytes were incubated overnight at 37 °C under microaerophilic conditions, and purity was assessed by examination under a light microscope (400× […]
Gametocyte viability was assessed as described by Ridgway et al. (21) with modifications.
Compounds or solvent controls (DMSO) were serially diluted across 96-well plates in culture media supplemented with 50 mM N-acetyl-D-glucosamine. Culture media without compound was used as a negative control. […]
control to determine background gametocyte fluorescence. Stage III-IV gametocytes (Day 7) or stage V (day 10) gametocytes were concentrated and added to the plate with 200 µL per well. The plate was incubated for 48 hours at 37 °C under humid microaerophilic conditions.
Parasites were then stained with 500 nM MitoTrackerTM Deep Red FM and 5 μg/ml Hoechst […]
cytometer as described above. […]
excluded. Live (positive) and dead (negative) gametocytes were differentiated by […]
percentage of each was calculated. […]
In general terms: In flow cytometry, cells or beads pass a laser one at a time.

“And” between values parts separate entries of the source, which are not always exact repeats. Identical values can stand only once.

Procedure for P. berghei liver stages: Growth inhibition or cell viability were assessed by incubation with a serial dilution of test compounds, solvent controls (DMSO, ethanol, ethyl acetate), or culture media alone in 96-well plates, with detection of fluorescence, luminescence, or absorbance in microplate readers after 24–96 h unless otherwise specified.
Huh7 cells were seeded at a density of 10,000 cells per well of a 96-well plate, or 20,000 cells per collagen-coated coverslip. After 24 h, test compounds were added the wells were inoculated with P. berghei liver stage sporozoites dissected from infected A. stephensi salivary glands with 5000–10,000 sporozoites per well or 10,000–20,000 sporozoites per coverslip. Uninfected wells served as a control for background luminescence. Luminescence signal was measured 48 h post-invasion by addition of 1:1 ONE-Glo^TM substrate (Promega) with a luminescence microplate reader. Coverslips were fixed, stained, and imaged, with all parasites on each coverslip imaged and delineated as described (Petersen et al, [2017]) using Fiji ImageJ (Schindelin et al, [2012]). Data are presented as a percentage of the size or parasite number of the solvent control to normalize for differences between experiments.
Growth inhibition data were normalised by subtracting background fluorescence, luminescence, absorbance, or percentage of cells from a no-growth or no-viability control (high drug concentration, no-parasite control, or time = 0 measurement as specified), and expressed as a percentage of the growth or cell percentage in the negative control (culture media alone or solvent control) at the indicated timepoint (or to the highest measurement reached during the assay for Fig. EV3).
Plasmodium berghei ANKA Bergreen (22) or GFP-Luc (RMgm-29) (23), respectively
expressing green fluorescent protein (GFP) or a GFP-Luciferase fusion protein, were
maintained under routine conditions in SWR/J Mus musculus mice and Anopheles stephensi
Growth inhibition of P. berghei liver-stages was investigated after infection of human
hepatoma cells (Huh7) and subsequent growth for 48 hours at 37° C, 5% CO2 and 80%
humidity. The day prior to infection, 10,000 Huh7 cells were seeded in dark-sided 96-well
microplates (Greiner Bio One). On the day of infection, compounds or solvent controls
(DMSO) were serially diluted in culture media and 5,000 – 10,000 Bergreen or GFP-Luc
sporozoites were added per well following dissection from infected A. stephensi salivary
glands. Uninfected wells served as control for background luminescence. To promote invasion,
the plates were centrifuged at 1,550 g for 5 minutes. After 60 minutes, the media was
completely replaced with fresh, prewarmed media with the matching drug concentrations.
Media was partially replaced with new drug dilutions over the following two days. 48 hours
post-infection, luminescence signal was measured by addition of 1:1 ONE-GloTM substrate
(Promega) to the wells, followed by detection at 300 – 700 nm using a Synergy HTX plate

As for `COc1cc(NC(C)CCCNC(=O)CCC(=O)O[C@H]2CC[C@H]3[C@@H]4CC=C5C[C@@H](O)CC[C@]5(C)[C@H]4CC[C@]23C)c2ncccc2c1` (stereo partly drawn) [C-17-PQ], the “P. berghei liver stage growth, dose-response data points (Figure 3A)” value with P. berghei liver stages (0.015241580 uM) is 99.66 and 97.59 and 102.8 and 91.81 and 95.85 and 112.3 and 109.1 and 88.24 and 102.7; with P. berghei liver stages (0.045724740 uM), 109 and 90.36 and 103.8 and 84.25 and 83.27 and 86.47 and 94.66 and 88.64 and 73.11; in the assay on P. berghei liver stages (0.137174210 uM), 94.49 and 73.84 and 68.67 and 79.23 and 76.1 and 53.42 and 81.73 and 93.15 and 81.23; in the assay on P. berghei liver stages (0.411522630 uM), 13.94 and 18.07 and 25.3 and 9.363 and 14.77 and 12.23 and 25.32 and 28.82 and 21.11; in the assay on P. berghei liver stages (1.234567900 uM), 1.549 (2×) and -1.549 and 0.4997 and 0.5648 and 2.455 and 1.57 and 4.175 and 3.674; in the assay with P. berghei liver stages (3.703703700 uM), -1.549 and -0.5164 and -3.614 and 0.04345 and -0.02173 and 0.1086 and 0.3674 and 0.5678 and 1.47. The “P. berghei liver stage growth, dose-response data points (Figure 3A)” value in the assay with P. berghei liver stages (11.111111100 uM) is -2.582 (2×) and -3.614 and -0.0869 and 0.1086 and 0.4997 and 0.5678 and 0.4676 and 0.7682; with P. berghei liver stages (33.333333300 uM), -2.582 and -1.549 and -0.5164 and -0.02173 and 0.3041 (2×) and 0.3674 (2×) and 0.9686; with P. berghei liver stages (100.000000000 uM), 0.5164 and -1.549 and 1.549 and 0.04345 and 0.4997 and 0.1086 and 0.5678 (2×) and 0.668. Moreover, the “Figure 3E dose-response value (replicates)” value in the assay with P. berghei liver stages (0.145312500 uM) is 100.6 and 88.31 and 76.37 and 94.25; in the assay on P. berghei liver stages (0.290625000 uM), 94.35 and 94.79 and 85.61 and 89.45 and 87.37 and 88.47 and 84.93 and 94.4 and 94.85 and 93.84 and 89.47 and 91.21; in the assay on P. berghei liver stages (0.581250000 uM), 102.2 and 80.25 and 95.76 and 90.1 and 83.44 and 75.35 and 88.55 and 97.11 and 92.72 and 86.07 and 93.7 and 93.03; in the assay with P. berghei liver stages (1.162500000 uM), 80.19 and 74.87 and 75.85 and 88.24 and 81.26 and 89.14 and 75.39 and 78.14 and 86.59 and 91.1 and 86.79 and 86.51; in the assay on P. berghei liver stages (2.325000000 uM), 53.31 and 45.1 and 53.66 and 84.74 and 82.81 and 85.04 and 49.27 and 57.96 and 49.51 and 76.01 and 76.49 and 71.94; in the assay on P. berghei liver stages (4.650000000 uM) it was 7.681 and 6.67 and 6.188 and 47.84 and 67.52 and 65.25 and 8.114 and 8.015 and 9.768 and 28.34 and 27.7 and 22. Further, the “Figure 3E dose-response value (replicates)” value was 1.871 and 0.7826 and 2.182 and 4.713 and 13.07 and 10.27 and 2.653 and 3.064 and 2.474 and 6.135 and 6.853 and 6.628 in the assay with P. berghei liver stages (9.300000000 uM); 1.555 and 0.8085 and 1.399 and 1.289 and 0.3453 and 0.9092 and 0.9717 and 1.016 and 1.705 and 1.904 and 2.379 and 2.285 with P. berghei liver stages (18.600000000 uM); 2.576 and 1.923 and 1.736 and -0.9169 and -0.5313 and 0.3203 and 0.31 and 1.213 and 0.6856 and 1.324 and 1.043 and 1.236 with P. berghei liver stages (37.200000000 uM). The results for the “Fold reduction in IC50 compared to primaquine alone” value (in the assay with P. berghei liver stages (48 h); in assay [2]) were ~ 15 fold and more than 2 fold, respectively. The half-maximal inhibitory concentration (IC50) in the assay on P. berghei liver stages (Plasmodium berghei, Huh-7, 48 h, read-out: IC50, P. berghei liver stage growth inhibition) was 0.2 µM; in assay [1], more than 50 µM; in assay [2] (Plasmodium falciparum, read-out: IC50, P. falciparum gametocyte stage V inhibition), 6.8 µM. Moreover, the viability at 3.125 µM in assay [2] (Plasmodium falciparum, read-out: Gametocyte stage V viability, percentage of control, 3.125000000 uM, 48 h, replicate values, source data Fig. 2D) was 74.7%.
